According to patent US8404664B2, “Phosphonated Rifamycins and uses thereof for the prevention and treatment of bone and joint infections” (Targanta Therapeutics, Inc., priority 2005, dated 2013):
Converted amounts (≈) assume the structure as drawn. Marks after values point to notes of the source that are not given here.

Key:
[1] = Regeneration of drug from bone powder-bound prodrug; type: in vitro ADME; details: for % Conversion of bone-bound prodrug to parent drug: 24 h incubation, 37° C.; for Impact of the medium on the rate of regeneration of parent drug (in words): serum compared to PBS
Description: Amounts of parent drug “regenerated” from the phosphonated prodrug were measured as follows. Washed bone powder-bound prodrugs from the above experiment were resuspended in 400 μL PBS+2% DMSO or in 400 μL 50% (v/v in PBS+2% DMSO) human or rat serum. The suspension was incubated overnight at 37° C., centrifuged at 13,000 rpm for 2 min and the supernatant was recovered. The amount of regenerated parent drug in the supernatant was determined by measurements using the microbiological assay that was previously described for the prodrugs themselves. The amount of prodrug was deduced from standard curves of known amounts of parent drug that were used as reference for each experiment.

[2] = tested on: S. aureus ATCC 13709 Novobiocin and Rifampicin resistant variant; experiment: microbe, parasite or virus in culture; type: cell-based; details: for Minimum inhibitory concentration, S. aureus ATCC 13709 variant: Novobiocin and Rifampicin resistant variant; for MIC: Staphylococcus aureus, ATCC13709, read-out: Minimum inhibitory concentration, S. aureus ATCC 13709 variant
Description: (§1) Susceptibility of S. aureus strains to the known antibiotics and synthesized compounds was determined by following the guidelines set by NCCLS (M26-A). Compounds were diluted two-fold serially in DMSO and transferred to cation-adjusted Mueller Hinton broth (CAMHB; Becton Dickinson). 50 μL of compounds diluted in CAMHB was mixed with 100 μL of bacteria diluted in CAMHB in 96-well microtiter plates. The final concentration of micro-organisms in the assay was 5×10^5 c.f.u. per mL and the final concentration of DMSO in the assay was 1.25%. Assays were set up in duplicate and incubated at 37° C. for 18 h. The lowest concentration of compound that inhibited visible growth was reported as the minimum inhibitory concentration (MIC).

[3] = tested on: S. aureus RN4220; experiment: Antibacterial susceptibility (MIC), NCCLS broth microdilution; type: cell-based; details: CAMHB, 37° C., 18 h; for MIC: Staphylococcus aureus, RN4220, read-out: Minimum inhibitory concentration, S. aureus RN4220
Description: as §1

[4] = tested on: S. aureus ATCC 43300 (Fluoroquinolone sensitive MRSA); experiment: as above; type: cell-based; details: for MIC: Staphylococcus aureus, read-out: Minimum inhibitory concentration, S. aureus ATCC 43300
Description: as §1

[5] = tested on: S. aureus ATCC 13709; experiment: as above; type: cell-based; details: for MIC: Staphylococcus aureus, ATCC13709, read-out: Minimum inhibitory concentration, S. aureus ATCC 13709
Description: as §1

[6] = tested on: S. aureus BK85 (Fluoroquinolone resistant MRSA); experiment: as above; type: cell-based; details: for MIC: Staphylococcus aureus, read-out: Minimum inhibitory concentration, S. aureus BK85
Description: as §1

[7] = tested on: S. aureus ATCC 13709; experiment: Antibacterial susceptibility (MIC) in the presence of serum; type: cell-based; details: for MIC: Staphylococcus aureus, ATCC13709, 18 h
Description: as §1
Susceptibility testing experiments were also carried out in the presence of serum.
These experiments were carried out similar to the susceptibility testing with the following modifications. 75 μL of compounds diluted in CAMHB was mixed with 75 μL of bacteria diluted in 100% serum from any given source (commercial pooled mouse serum (MS) and human serum (HS), Equitech-Bio Inc.) or diluted in 8% purified human serum albumin (HSA) (Calbiochem). The final concentration of animal serum in the assay was 50% and the final concentration of purified human serum albumin in the assay was 4%; the concentrations of all other components were identical to those described for susceptibility testing.

[8] = tested on: S. aureus ATCC 13709 Novobiocin resistant mutant (bone infection); experiment: Prophylactic efficacy in rat model of S. aureus bone infection; type: in vivo; details: rat tibia 24 h postinfection, 3 days prior to infection
Description: Specifically, a spontaneous Novobiocin resistant mutant strain of S. aureus ATCC 13709 (a clinical osteomyelitis isolate), was grown overnight at 37° C. in brain heart infusion broth (BHIB). After 16 h of growth, cells were subcultured into fresh BHIB and incubated for 4 to 5 h at 37° C. The cells were washed twice with phosphate-buffered saline (PBS) and resuspended in BHIB supplemented with 10% (vol./vol.) fetal bovine serum at a density of approximately 10^10 colony forming units (CFU)/ml (based upon turbidimetry). The suspension was aliquoted and a portion was used to check the CFU count. The culture was stored frozen (−80° C.) and was used without subculture. For use as an inoculum the culture was thawed, diluted in PBS and kept in an ice bath until it was used.
Animals were infected as described by O'Reilly et al. (Antimicrobial Agents and Chemotherapy (1992), 36(12): 2693-97) to generate the bone infection. Female CD rats (age, 57 to 70 days; n=5/group; Charles River, St-Constant, Canada) were anaesthetized by isofluorane before and during the surgery. Following complete induction of anesthesia, the rat was placed ventral side up and hair was shaved from the surgical site. The skin over the leg was cleaned and disinfected (proviodine-ethanol 70%). A longitudinal incision below the knee joint was made in the sagital plane. The incision was made over the bone below the “knee joint” (tibia head or condyle) but not completely extending to the ankle. A high speed drill fitted with a 2 mm bulb bit was used to drill a hole into the medullar cavity of the tibia. Rats were injected intra-tibially with 0.05 ml 5% sodium morrhuate (sclerosing agent) and then with 0.05 ml of S. aureus suspension (ca. 2×10^7 CFU/rat). The hole was sealed by applying a small amount of dry dental cement which immediately absorbs fluids and adheres to the site. The wound was closed using 3 metal skin clips. Moxifloxacin (as a positive control) was injected once at 10 mg/kg intravenously 1 h postinfection in saline, while the Rifamycin derived prodrugs (prepared in 0.9% saline) were injected at the dose indicated in Table 3 as a single intravenous bolus at different time points prior to the infection.
Infected rats were sacrificed by CO2 asphyxiation 24 h postinfection to monitor the bacterial CFU count. Infected tibiae were removed, dissected free of soft tissue, and weighed. The bones were ground, resuspended in 5 ml 0.9% NaCl, serially diluted and processed for quantitative cultures. For compounds 50, 68 and 81, 1 ml of the 0.9% NaCl solution was added to 50 mg of charcoal before serial dilutions. Treatment efficacy was measured in terms of Log viable bacteria (Log CFU per gram of bone). […] The limit of detection is 2 Log CFU. […] Differences were considered significant when the P value was <0.05 when comparing treated infected animals to the untreated infected ones. The doses used, the amount of time separating the treatment from the time of infection and the treatment outcomes are shown in Table 3.

[9] = tested on: E. coli LBB925 (tolC mutant); experiment: Antibacterial susceptibility (MIC), NCCLS broth microdilution; type: cell-based; details: for Minimum inhibitory concentration, E. coli LBB925: tolC mutant; for MIC: Escherichia coli, read-out: Minimum inhibitory concentration, E. coli LBB925
[10] = single dose 20 mg/kg parent drug equivalent
[11] = read-out: Minimum inhibitory concentration, S. aureus ATCC 13709 + 50% Human Serum
[12] = read-out: Minimum inhibitory concentration, S. aureus ATCC 13709 + 50% Mouse Serum
[13] = read-out: Minimum inhibitory concentration, S. aureus ATCC 13709 + 50% Rat Serum

Row | Compound | % Conversion of bone-bound prodrug to parent drug ([1]; 50% Rat Serum) [%] | % Conversion of bone-bound prodrug to parent drug ([1]; PBS) [%] | Impact of the medium on the rate of regeneration of parent drug (in words) [1] | Activity against the Rifampicin resistant variant of S. aureus ATCC13709 (in words) [2] | Minimum inhibitory concentration, S. aureus ATCC 13709 variant [2] [µg/mL] | Minimum inhibitory concentration, S. aureus RN4220 [3] [µg/mL] | Minimum inhibitory concentration, S. aureus ATCC 43300 [4] [µg/mL] | Minimum inhibitory concentration, S. aureus ATCC 13709 [5] [µg/mL] | Minimum inhibitory concentration, S. aureus BK85 [6] [µg/mL] | Minimum inhibitory concentration, S. aureus ATCC 13709 + 50% Human Serum [7] [µg/mL] | Minimum inhibitory concentration, S. aureus ATCC 13709 + 50% Mouse Serum [7] [µg/mL] | Minimum inhibitory concentration, S. aureus ATCC 13709 + 50% Rat Serum [7] [µg/mL] | Measured bacterial titer [8, 10] | Minimum inhibitory concentration, E. coli LBB925 [9] [µg/mL] | MIC [2] [µg/mL] | MIC [3] [ng/mL] | MIC [4] [ng/mL] | MIC [5] [ng/mL] | MIC [6] [ng/mL] | MIC [7, 11] [µg/mL] | also measured
1 | CCN(CC)CC.CCN(CC)CC.CO[C@H]1/C=C/O[C@@]2(C)Oc3c(C)c(O)c4c(c3C2=O)C2=NC3(CCN(CC(C)C)CC3)N(C(=O)OCOC(=O)CCCC(P(=O)(O)O)P(=O)(O)O)C2=C(NC(=O)/C(C)=C\C=C\[C@H](C)[C@H](O)[C@@H](C)[C@@H](O)[C@@H](C)[C@H](OC(C)=O)[C@@H]1C)C4=O [Compound 50] | 2.68 | 2.65 | not significantly impacted | complete lack of activity | >128 | 0.25 | 0.25 | 0.25 | 0.25 | 0.125 | 0.125 | 0.032 | 6.31 ± 0.82 Log CFU/g of bone | 16 |  |  |  |  |  |  | Impact of serum on the MICs (in words) [7]: no impact
2 | CO[C@H]1/C=C/O[C@@]2(C)Oc3c(C)c(O)c4c(=O)c(c5oc6cc(N7CCC(O)CC7)cc(O)c6nc-5c4c3C2=O)NC(=O)/C(C)=C\C=C\[C@H](C)[C@H](O)[C@@H](C)[C@@H](O)[C@@H](C)[C@H](OC(C)=O)[C@@H]1C [Compound 63, 1′,4-Didehydro-1-deoxy-1,4-dihydro-3′-hydroxy-5′-[4-hydroxy-1-piperidinyl]-1-oxorifamycin VIII] |  |  |  |  |  |  |  |  |  |  |  |  | 2.84 ± 0.93 Log CFU/g of bone |  | 2 (≈ 2220 nM) | 0.48 (≈ 0.533 nM) | 0.48 (≈ 0.533 nM) | 0.48 (≈ 0.533 nM) | 0.48 (≈ 0.533 nM) | 0.0078 | MIC [7, 12]: 0.0156 µg/mL; MIC [7, 13]: 0.032 µg/mL; MIC [9]: 8 µg/mL (≈ 8890 nM)
3 | CO[C@H]1/C=C/O[C@@]2(C)Oc3c(C)c(O)c4c(=O)c(c5oc6cc(N7CCC(OC(=O)CCC(=O)NC(P(=O)(O)O)P(=O)(O)O)CC7)cc(O)c6nc-5c4c3C2=O)NC(=O)/C(C)=C\C=C\[C@H](C)[C@H](O)[C@@H](C)[C@@H](O)[C@@H](C)[C@H](OC(C)=O)[C@@H]1C [Compound 68] | 0.24 | 0.02 | significant acceleration | complete lack of activity | >128 | 0.25 (≈ 213 nM) | 0.0625 (≈ 53.3 nM) | 0.0625 (≈ 53.3 nM) | 0.25 (≈ 213 nM) | 1 | 1 | 2 | 4.86 ± 0.66 Log CFU/g of bone | 64 (≈ 54600 nM) |  |  |  |  |  |  | Regeneration of parent drug once bound to bone (in words) [1]: only slightly regenerates
4 | CO[C@H]1/C=C/O[C@@]2(C)Oc3c(C)c(O)c4c(=O)c(c5oc6cc(N7CCN(CC(C)C)CC7)cc(O)c6nc-5c4c3C2=O)NC(=O)/C(C)=C\C=C\[C@H](C)[C@H](O)[C@@H](C)[C@@H](O)[C@@H](C)[C@H](OC(C)=O)[C@@H]1C [Rifalazil, 1′,4-Didehydro-1-deoxy-1,4-dihydro-3′-hydroxy-5′-[4-(2-methylpropyl)-1-piperazinyl]-1-oxorifamycin VIII, reference compound] |  |  |  |  |  |  |  |  |  |  |  |  | 4.08 ± 1.53^a Log CFU/g of bone |  | 16 (≈ 17000 nM) | 0.48 (≈ 0.51 nM) | 1 (≈ 1.06 nM) | 1 (≈ 1.06 nM) | 1 (≈ 1.06 nM) | 0.032 | MIC [7, 12]: 0.032 µg/mL; MIC [7, 13]: 0.0078 µg/mL; Measured bacterial titer ([8]; single dose 10 mg/kg parent drug equivalent): 2.21 ± 0.34 Log CFU/g of bone; MIC [9]: 16 µg/mL (≈ 17000 nM)
